# Results: patent US12098145B2 (Libra Therapeutics, Inc., priority 2022, dated 2024)
# Like-named read-outs stand apart in the source and are kept apart here.
# Assays:
# TRPML1 = target: T1, TRPML1 (Homo sapiens, UniProt Q9GZU1); assay: Cellular TRPML1 assay (FLIPR, GCaMP6f calcium read-out); type: cell-based
# T1 construct: expressed in transfected cells; host or cells: HEK T-REx cells stably expressing GCaMP6f and TRPML1
# In short: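 Read-out is GCaMP6f fluorescence over 300 s after compound addition in Ca2+-free Tyrode's buffer, final DMSO 0.5%, on FLIPR Tetra. Cells are HEK T-REx stably co-expressing the indicator and TRPML1, plated 24 h earlier in Optimem + 0.5% FBS and pre-incubated ~10 min at room temperature.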
# TFEB = TFEB translocation assay (TFEB reporter in U2OS cells, imaging); type: cell-based; conditions: Homo sapiens; U2OS cell line with TFEB reporter, 2 hours incubation, nucleus to cytoplasm ratio, normalized to Torin-1; read-out: TFEB Translocation pEC50 (converted)
# In short: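 Activity expresses the mean nuclear-to-cytosolic reporter ratio scaled between DMSO (0%) and Torin-1 (100%) controls. Read-out came from high-content imaging of fixed, Hoechst-counterstained U2OS cells carrying mRFP-tagged TFEB after 2 h compound exposure at 37 °C in Opti-MEM with 0.015% Tween 80 and 0.5% DMSO.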
# [1] = HEKT-REx/GCaMP6f/TRPML1 cells, FLIPR TETRA, kinetic response over 300 seconds, read-out: TRPML1 FLIPR pEC50 (converted)
# T1 sequence (Q9GZU1 whole entry): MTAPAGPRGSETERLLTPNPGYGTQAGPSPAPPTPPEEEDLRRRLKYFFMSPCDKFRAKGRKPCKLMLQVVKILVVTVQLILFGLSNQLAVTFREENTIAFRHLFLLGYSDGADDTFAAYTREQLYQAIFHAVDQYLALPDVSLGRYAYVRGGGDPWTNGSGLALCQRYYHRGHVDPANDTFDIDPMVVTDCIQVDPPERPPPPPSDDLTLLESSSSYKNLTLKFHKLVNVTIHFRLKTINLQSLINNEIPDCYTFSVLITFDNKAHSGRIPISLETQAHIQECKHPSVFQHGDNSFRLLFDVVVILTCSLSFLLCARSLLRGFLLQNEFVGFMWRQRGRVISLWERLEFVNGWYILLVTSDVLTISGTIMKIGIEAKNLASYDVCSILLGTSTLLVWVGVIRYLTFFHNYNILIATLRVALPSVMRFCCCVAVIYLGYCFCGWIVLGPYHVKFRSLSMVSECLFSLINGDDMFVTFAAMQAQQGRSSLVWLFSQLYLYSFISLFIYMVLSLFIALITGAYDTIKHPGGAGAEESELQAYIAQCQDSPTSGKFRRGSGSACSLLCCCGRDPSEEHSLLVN
SMILES,EC50 (TRPML1; [1]) [µM],EC50 (TRPML1) [µM],EC50 (TFEB) [µM]
"COC1(C)CN(c2nc(C(=O)Nc3cc(O)c(N4C5CCCC4CC5)c(F)c3)c(CC(F)(F)F)o2)C1 [Example 272, N-(4-(8-azabicyclo[3.2.1]octan-8-yl)-3-fluoro-5-hydroxyphenyl)-2-(3-methoxy-3-methylazetidin-1-yl)-5-(2,2,2-trifluoroethyl)oxazole-4-carboxamide]",–,0.01 to 1,0.01 to 1
"CCCc1oc(N2CCC3CCCC32)nc1C(=O)Nc1cc(F)c(OC2CC3C[C@H]3C2)c(F)c1 (stereo partly drawn) [Example 275, N-(4-(cis-bicyclo[3.1.0]hexan-3-yloxy)-3,5-difluorophenyl)-2-(hexahydrocyclopenta[b]pyrrol-1(2H)-yl)-5-propyloxazole-4-carboxamide]",0.01 to 1,–,0.01 to 1
"COC1(C)CN(c2nc(C(=O)Nc3cc(F)c(O[C@@H]4C[C@@H]5C[C@@H]5C4)c(F)c3)c(CCF)o2)C1 [Example 276, N-(4-(cis-bicyclo[3.1.0]hexan-3-yloxy)-3,5-difluorophenyl)-5-(2-fluoroethyl)-2-(3-methoxy-3-methylazetidin-1-yl)oxazole-4-carboxamide]",0.01 to 1,–,0.01 to 1
"CCC1(OC)CN(c2nc(C(=O)Nc3cc(C)c(OC4CC5CC(C5)C4)c(F)c3)c(CCF)o2)C1 (centres unmarked) [Example 277, N-(4-(bicyclo[3.1.1]heptan-3-yloxy)-3-fluoro-5-methylphenyl)-2-(3-ethyl-3-methoxyazetidin-1-yl)-5-(2-fluoroethyl)oxazole-4-carboxamide]",0.01 to 1,–,0.01 to 1
"Cc1cc(NC(=O)c2nc(N3CCCC3)oc2CCF)cc(F)c1OC1CC2CC(C2)C1 (centres unmarked) [Example 278, N-(4-(bicyclo[3.1.1]heptan-3-yloxy)-3-fluoro-5-methylphenyl)-5-(2-fluoroethyl)-2-(pyrrolidin-1-yl)oxazole-4-carboxamide]",0.01 to 1,–,0.01 to 1
"O=C(Nc1cc(F)c(OC2CC3CC(C3)C2)c(F)c1)c1nc(N2CCCC2)oc1CCF (centres unmarked) [Example 279, N-(4-(bicyclo[3.1.1]heptan-3-yloxy)-3,5-difluorophenyl)-5-(2-fluoroethyl)-2-(pyrrolidin-1-yl)oxazole-4-carboxamide]",0.01 to 1,–,0.01 to 1
"COC1(C)CN(c2nc(C(=O)Nc3cc(C)c(O[C@@H]4C[C@@H]5C[C@@H]5C4)c(F)c3)c(CCF)o2)C1 [Example 280, N-(4-(cis-bicyclo[3.1.0]hexan-3-yloxy)-3-fluoro-5-methylphenyl)-5-(2-fluoroethyl)-2-(3-methoxy-3-methylazetidin-1-yl)oxazole-4-carboxamide]",0.01 to 1,–,0.01 to 1
"COC1(C)CN(c2nc(C(=O)Nc3cc(C)c(OC4CC5CC(C5)C4)c(F)c3)c(CCF)o2)C1 (centres unmarked) [Example 281, N-(4-(bicyclo[3.1.1]heptan-3-yloxy)-3-fluoro-5-methylphenyl)-5-(2-fluoroethyl)-2-(3-methoxy-3-methylazetidin-1-yl)oxazole-4-carboxamide]",0.01 to 1,–,0.01 to 1
"CCC1(CC)CN(c2nc(C(=O)Nc3cc(C)c(OC4CC5CC(C5)C4)c(F)c3)c(CCF)o2)C1 (centres unmarked) [Example 282, N-(4-(bicyclo[3.1.1]heptan-3-yloxy)-3-fluoro-5-methylphenyl)-2-(3,3-diethylazetidin-1-yl)-5-(2-fluoroethyl)oxazole-4-carboxamide]",0.01 to 1,–,0.01 to 1
"CCC1(CC)CN(c2nc(C(=O)Nc3cc(C)c(N4C5CCCC4CC5)c(F)c3)c(CCF)o2)C1 [Example 289, N-(4-(8-azabicyclo[3.2.1]octan-8-yl)-3-fluoro-5-methylphenyl)-2-(3,3-diethylazetidin-1-yl)-5-(2-fluoroethyl)oxazole-4-carboxamide]",–,0.01 to 1,0.01 to 1
COC1(C)CN(c2nc(C(=O)Nc3cc(C)c(N4C5CCCC4CC5)c(F)c3)c(CCF)o2)C1 [Example 290],–,0.01 to 1,0.01 to 1

# Now from value to compound, other results behind:
EC50 (TRPML1; [1]) [µM],SMILES,EC50 (TRPML1) [µM],EC50 (TFEB) [µM]
0.01 to 1,"CCC1(CC)CN(c2nc(C(=O)Nc3ccc(OC4CC5CC(C5)C4)c(F)c3)c(CCF)o2)C1 (centres unmarked) [Example 283, N-(4-(bicyclo[3.1.1]heptan-3-yloxy)-3-fluorophenyl)-2-(3,3-diethylazetidin-1-yl)-5-(2-fluoroethyl)oxazole-4-carboxamide]",–,0.01 to 1
0.01 to 1,"O=C(Nc1cc(F)c(OC2CC3CC(C3)C2)c(F)c1)c1nc(N2CCC3(CC3)C2)oc1CCF (centres unmarked) [Example 284, N-(4-(bicyclo[3.1.1]heptan-3-yloxy)-3,5-difluorophenyl)-5-(2-fluoroethyl)-2-(5-azaspiro[2.4]heptan-5-yl)oxazole-4-carboxamide]",–,0.01 to 1
0.01 to 1,"CCC1(CC)CN(c2nc(C(=O)Nc3cc(C)c(O[C@@H]4C[C@@H]5C[C@@H]5C4)c(F)c3)c(CCF)o2)C1 [Example 285, N-(4-(cis-bicyclo[3.1.0]hexan-3-yloxy)-3-fluoro-5-methylphenyl)-2-(3,3-diethylazetidin-1-yl)-5-(2-fluoroethyl)oxazole-4-carboxamide]",–,0.01 to 1
0.01 to 1,"CCC1(CC)CN(c2nc(C(=O)Nc3cc(F)c(OC4CC5CC(C5)C4)c(F)c3)c(CCF)o2)C1 (centres unmarked) [Example 286, N-(4-(bicyclo[3.1.1]heptan-3-yloxy)-3,5-difluorophenyl)-2-(3,3-diethylazetidin-1-yl)-5-(2-fluoroethyl)oxazole-4-carboxamide]",–,0.01 to 1
0.01 to 1,"CCC1(CC)CN(c2nc(C(=O)Nc3cc(F)c(O[C@@H]4C[C@@H]5C[C@@H]5C4)c(F)c3)c(CCF)o2)C1 [Example 287, N-(4-(cis-bicyclo[3.1.0]hexan-3-yloxy)-3,5-difluorophenyl)-2-(3,3-diethylazetidin-1-yl)-5-(2-fluoroethyl)oxazole-4-carboxamide]",–,0.01 to 1
0.01 to 1,"O=C(Nc1cc(F)c(O[C@@H]2C[C@@H]3C[C@@H]3C2)c(F)c1)c1nc(N2CCC3(CC3)C2)oc1CCF [Example 288, N-(4-(cis-bicyclo[3.1.0]hexan-3-yloxy)-3,5-difluorophenyl)-5-(2-fluoroethyl)-2-(5-azaspiro[2.4]heptan-5-yl)oxazole-4-carboxamide]",–,0.01 to 1
0.01 to 1,"CCC1(CC)CN(c2nc(C(=O)Nc3cc(C)c(O[C@@H]4C[C@@H]5C[C@@H]5C4)c(F)c3)c(COC)o2)C1 [Example 293, N-(4-(cis-bicyclo[3.1.0]hexan-3-yloxy)-3-fluoro-5-methylphenyl)-2-(3,3-diethylazetidin-1-yl)-5-(methoxymethyl)oxazole-4-carboxamide]",–,0.01 to 1
0.01 to 1,"COCc1oc(N2CC(C)(OC)C2)nc1C(=O)Nc1cc(C)c(O[C@@H]2C[C@@H]3C[C@@H]3C2)c(F)c1 [Example 294, N-(4-(cis-bicyclo[3.1.0]hexan-3-yloxy)-3-fluoro-5-methylphenyl)-2-(3-methoxy-3-methylazetidin-1-yl)-5-(methoxymethyl)oxazole-4-carboxamide]",–,0.01 to 1
0.01 to 1,"CCC1(CC)CN(c2nc(C(=O)Nc3cc(F)c(OC4CC5C[C@H]5C4)c(F)c3)c(COC)o2)C1 (stereo partly drawn) [Example 295, N-(4-(cis-bicyclo[3.1.0]hexan-3-yloxy)-3,5-difluorophenyl)-2-(3,3-diethylazetidin-1-yl)-5-(methoxymethyl)oxazole-4-carboxamide]",–,0.01 to 1
0.01 to 1,"COCc1oc(N2CC(C)(CO)C2)nc1C(=O)Nc1cc(C)c(OC2CC3CC(C3)C2)c(F)c1 (centres unmarked) [Example 296, N-(4-(bicyclo[3.1.1]heptan-3-yloxy)-3-fluoro-5-methylphenyl)-2-(3-(hydroxymethyl)-3-methylazetidin-1-yl)-5-(methoxymethyl)oxazole-4-carboxamide]",–,0.01 to 1
0.01 to 1,"CCC1(CC)CN(c2nc(C(=O)Nc3cc(F)c(O[C@@H]4C[C@@H]5C[C@@H]5C4)c(F)c3)c(CN3CCCC3)o2)C1 [Example 299, N-(4-(cis-bicyclo[3.1.0]hexan-3-yloxy)-3,5-difluorophenyl)-2-(3,3-diethylazetidin-1-yl)-5-(pyrrolidin-1-ylmethyl)oxazole-4-carboxamide]",–,0.01 to 1
0.01 to 1,"CCN(C)Cc1oc(N2CC(CC)(OC)C2)nc1C(=O)Nc1cc(F)c(OC2CC3CC(C3)C2)c(F)c1 (centres unmarked) [Example 302, N-(4-(bicyclo[3.1.1]heptan-3-yloxy)-3,5-difluorophenyl)-5-((ethyl(methyl)amino)methyl)-2-(3-ethyl-3-methoxyazetidin-1-yl)oxazole-4-carboxamide]",–,0.01 to 1
0.01 to 1,"CCC1(OC)CN(c2nc(C(=O)Nc3cc(F)c(O[C@@H]4C[C@@H]5C[C@@H]5C4)c(F)c3)c(CN(C)C)o2)C1 [Example 303, N-(4-(cis-bicyclo[3.1.0]hexan-3-yloxy)-3,5-difluorophenyl)-5-((dimethylamino)methyl)-2-(3-ethyl-3-methoxyazetidin-1-yl)oxazole-4-carboxamide]",–,0.01 to 1
0.01 to 1,"CCN(C)Cc1oc(N2CC(CC)(OC)C2)nc1C(=O)Nc1cc(F)c(O[C@@H]2C[C@@H]3C[C@@H]3C2)c(F)c1 [Example 304, N-(4-(cis-bicyclo[3.1.0]hexan-3-yloxy)-3,5-difluorophenyl)-5-((ethyl(methyl)amino)methyl)-2-(3-ethyl-3-methoxyazetidin-1-yl)oxazole-4-carboxamide]",–,0.01 to 1
